Tested on: primary rat microglia
Experiment: Inhibition of microglia activation (Aβ-peptide stimulation, MTS reduction)
Assay type: cell-based
Conditions: Aβ-peptide-activated primary rat microglia, compound added day 5, MTS reduction on day 7, relative to DMSO control
Method: For in vitro production of Aβ-activated microglia, primary rat microglia with synthetic Aβ-peptide are incubated:
For simulation of Aβ deposits, synthetic Aβ peptide is dried on 96-hole tissue culture plates. A peptide stock solution is diluted by 2 mg/ml of H2O 1:50 in H2O. To coat the 96-hole plates, 30 μl of this dilute peptide solution/hole is used, and it is dried overnight at room temperature.
Primary rat microglia are harvested by mixed glia cultures, which were obtained from P3 rat brains. In the production of mixed glia cultures, the brains are taken from 3-day-old rats, and meninges are removed. The isolation of cells is achieved by trypsinization (0.25% trypsin solution, 15 minutes, 37° C.)). After undigested tissue fragments are separated with the aid of a 40 μm nylon mesh, the isolated cells are centrifuged off (800 rpm/10 minutes). The cell pellet is resuspended in the culture medium and moved into 100 ml tissue culture flasks (1 brain/tissue culture flask). […]
To quantify the microglia reactivity, the metabolic activity is measured on cultivation day 7 via the reduction of MTS (3-(4,5-dimethylthiazol-2-yl)-5-(3-carboxymethoxyphenyl)-2-(sulfophenyl)-2H-tetrazolium), Owen's reagent, Baltrop, J. A. et al. Bioorg. & Med. Chem. Lett., 1, 6111 (1991)). […]

COC(=O)CCCCCOc1ccc2nc(S(=O)(=O)Cc3ccccc3)n(-c3ccc(C)cc3)c2c1 [Example 9, 6-[[1-(4-Methylphenyl)-2-(phenylmethanesulfonyl)-1H-benzimidazol-6-yl]oxy]hexanoic acid methyl ester]
IC50: 460 nM

COC(=O)CCCCCOc1ccc2nc(N3CCOCC3)n(-c3ccccc3)c2c1 [Example 15, 6-[[2-(Morpholin-4-yl)-1-phenyl-1H-benzimidazol-6-yl]oxy]hexanoic acid methyl ester]
IC50: 870 nM
